Reference: patent US7868019B2, “Dermatitis treating agent” (Mitsubishi Tanabe Pharma Corporation, priority 2005, dated 2011)

Assays:
[1] = test system: Dermatitis Models Induced by Repeated Topical Application of Hapten; assay: Dermatitis model induced by repeated topical application of hapten (oxazolone, ear swelling); assay type: in vivo, BALB/c male mice; conditions: BALB/c mice; repeated topical challenge (Day 0, 2, 4, 7, 9) with 0.5% oxazolone containing 1% (w/v) test compound; ear thickness 24 hours after final challenge at Day 9 vs control
Description: Effects of the respective test compounds were expressed as ear swelling inhibitory rate (%) given by the following formula. Ear swelling inhibitory rate (%)=[1−(mean ear swelling of group treated with test compound/mean ear swelling of control group)]×100 Note) Ear swelling=Ear thickness 24 hours after challenge at Day 7−Ear thickness before challenge at Day 7 (2) Effects of Test Compounds on Dermatitis Models Induced by Repeated Topical Application of Hapten (Method) […], BALE/c male mice (BALB/c AnNCrlCrlj, 5-weeks old, acclimating term: one week, body weight: 20 to 30 g, one group: 4 to 6 mice, available from CHARLES RIVER LABORATORIES JAPAN, INC.) were sensitized on both sides of right ears by a topical application of 20 μL (10 μL for each side) 0.5% (w/v) oxazolone solution (Solvent: acetone)(Day−7). At the respective points of the 7th day (Day 0), 9th day (Day 2), 11th day (Day 4), 14th day (Day 7) and 16th day (Day 9) after sensitization, mice were challenged on the both sides of right ears by topical application of 20 μL (10 μL for each side) 0.5% (w/v) oxazolone solution containing 1% (w/v) of the respective test compounds (Solvent: acetone or an equal amount mixture of acetone/ethanol). Ear thickness was measured before challenge of the test compound solution or suspension by using a thickness gauge. At the final day (Day 9), ear thickness was measured also 24 hours after challenge. In control group, sensitized animals were challenged with 20 μL 0.5% (w/v) oxazolone solution containing no test compound (Solvent: acetone) on right ears. Effects of the respective test compounds were expressed as ear swelling inhibitory rate (%) given by following formula. Ear swelling inhibitory rate (%)=[1−(mean ear swelling of group treated with test compound/mean ear swelling of control group)]×100 Note) Ear swelling=(Thickness of ear 24 hours after final challenge at Day 9)−(Thickness of ear before sensitization at Day−7)

[2] = test system: Contact Dermatitis Model; assay: Contact dermatitis model (oxazolone sensitization and challenge, ear swelling); assay type: in vivo, BALB/c male mice; conditions: BALB/c mice, oxazolone-sensitized; topical challenge on right ear at Day 7 with 0.5% oxazolone containing 1% (w/v) test compound; ear thickness 24 hours after challenge vs control
Description: (1) Effects of Test Compounds in Contact Dermatitis Model (Method) BALB/c male mice (BALB/c AnNCrlCrlj, 5-weeks old, acclimating term: one week, body weight: 20 to 30 g, one group: 4 to 6 mice, available from CHARLES RIVER LABORATORIES JAPAN, INC.) were sensitized by epicutaneous application of 100 μL 0.5% (w/v) oxazolone solution (Solvent: acetone) on the shaved abdomen (Day 0). At the 7th day (Day 7) after sensitization, mice were challenged on both sides of right ears by topical application of 20 μL (10 μL for each side) 0.5% (w/v) oxazolone solution containing 1% (w/v) of respective test compounds (Solvent: acetone or an equal amount mixture of acetone/ethanol). Ear thickness was measured before and 24 hours after challenge by using a thickness gauge. In the control group, sensitized animals were challenged with 20 μL 0.5% (w/v) oxazolone solution containing no test compound (Solvent: acetone) on right ears. Effects of the respective test compounds were expressed as ear swelling inhibitory rate (%) given by the following formula. Ear swelling inhibitory rate (%)=[1−(mean ear swelling of group treated with test compound/mean ear swelling of control group)]×100 Note) Ear swelling=Ear thickness 24 hours after challenge at Day 7−Ear thickness before challenge at Day 7 (2) Effects of Test Compounds on Dermatitis Models Induced by Repeated Topical Application of Hapten (Method)

| Compound | Ear swelling inhibitory rate (%) Dermatitis model induced by repeated application of Hapten [1] | Ear swelling inhibitory rate (%) Contact dermatitis model [2] |
| --- | --- | --- |
| 1-[2-[4-(dimethylaminophenyl)phthalazin-1(2H)-one-2-yl]-pyridin-4-yl]-2,3-bis(hydroxymethyl)-6,7-dimethoxy-naphthalene [(9)] | 60.0% | 52.0% |
| COc1cc2cc(CO)c(CO)c(-c3ccnc(-n4nc(-c5cccnc5)c5cc(OC)c(OC)cc5c4=O)c3)c2cc1OC [(10), 1-[2-[6,7-dimethoxy-4-(3-pyridyl)phthalazin-1(2H)-one-2-yl]pyridin-4-yl]-2,3-bis(hydroxymethyl)-6,7-dimethoxy-naphthalene] | – | 66.0% |
| COc1cc2cc(CO)c(CO)c(-c3ccnc(-n4c(=O)cc(NCCCNC5CCCCC5)c5ccccc54)c3)c2cc1OC [(8), 1-[2-[1,2-dihydro-4-[3-(cyclohexylamino)propylamino]-2-oxoquinolin-1-yl]pyridin-4-yl]-2,3-bis(hydroxymethyl)-6,7-dimethoxynaphthalene] | 37.0% | 75.0% |
| (3S)-1-[2-[4-(dimethylaminophenyl)phthalazin-1(2H)-one-2-yl]pyridin-4-yl]-3,4-dihydro-3-hydroxymethyl-6,7-dimethoxy-isoquinoline [(11)] | 51.0% | 69.0% |
